Source: the supplement of paper PMC10331698
± gives the standard deviation of the averaged measurements.

Key:
Experiment in all cases: level (log10 ratio to DMSO vehicle control); higher = higher biomarker level / cell amount than vehicle control
Settings in all cases: in DMSO
[1] = compound: FC(F)(F)C(F)(F)C(F)(F)C(F)(F)C(F)(F)C(F)(F)C(F)(F)C(F)(F)CCS [2-(Perfluorooctyl)ethanthiol]
Experimental: (§1)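 BioMAP Diversity Plus panel of 12 human primary cell co-culture systems (3C, 4H, LPS, SAg, BT, BF4T, BE3C, CASM3C, HDF3CGF, KF3CT, MyoF, Mphg). Compounds were added 1 h before stimulation and left for 24 h (MyoF 48 h; BT 72 h for soluble read-outs or 6 d for IgG). Biomarkers were read by ELISA, cytotoxicity by SRB, PBMC viability and proliferation by Alamar Blue. Each well value was divided by the mean of 8 DMSO control wells on the same plate and log10 transformed; duplicate blinded samples were tested at 4 concentrations.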

[2] = compound: O=C(O)C(F)(F)C(F)(F)C(F)F [4H-Perfluorobutanoic acid]
Experimental: as §1

[3] = compound: CCN(CCO)S(=O)(=O)C(F)(F)C(F)(F)C(F)(F)C(F)(F)C(F)(F)C(F)(F)C(F)(F)C(F)(F)F [N-Ethyl-N-(2-hydroxyethyl)perfluorooctanesulfonamide]
Experimental: as §1

[4] = compound: C=CC(=O)OCC(F)(F)C(F)(F)C(F)(F)C(F)(F)C(F)(F)C(F)(F)C(F)(F)F [1H,1H-Perfluorooctyl acrylate]
Experimental: as §1

[5] = compound: FC(F)(F)C(F)(C(F)(F)F)C(F)(F)C(F)(F)CC1CO1 [3-(Perfluoro-3-methylbutyl)-1,2-propenoxide]
Experimental: as §1

[6] = compound: O=C(O)C(F)(F)C(F)(F)C(F)(F)C(F)(F)C(F)(F)C(F)(F)C(F)(F)C(F)F [9-H-Perfluorononanoic acid]
Experimental: as §1

[7] = compound: O=C(O)C(F)(F)OC(F)(F)C(F)(F)OC(F)(F)C(=O)O [Perfluoro-3,6-dioxaoctane-1,8-dioic acid]
Experimental: as §1

[8] = compound: C=C(C)C(=O)OCCC(F)(F)C(F)(F)C(F)(F)C(F)(F)C(F)(C(F)(F)F)C(F)(F)F [(Perfluoro-5-methylhexyl)ethyl 2-methylprop-2-enoate]
Experimental: as §1

Test System | level (log10) ([1]; 6700 nM) | level (log10) ([1]; 20000 nM) | level (log10) ([2]; 6700 nM) | level (log10) ([2]; 20000 nM) | level (log10) ([2]; 60000 nM) | level (log10) ([3]; 6700 nM) | level (log10) ([3]; 20000 nM) | level (log10) ([4]; 6700 nM) | level (log10) ([4]; 20000 nM) | level (log10) ([4]; 60000 nM) | level (log10) ([5]; 6700 nM) | level (log10) ([5]; 20000 nM) | level (log10) ([6]; 6700 nM) | level (log10) ([6]; 20000 nM) | level (log10) ([6]; 60000 nM) | level (log10) ([7]; 6700 nM) | level (log10) ([7]; 20000 nM) | level (log10) ([7]; 60000 nM) | level (log10) ([8]; 6700 nM) | level (log10) ([8]; 20000 nM)
BT:sIL-17A | -0.0475 ± 0.022 | -0.05 ± 0.042 | 0.067 ± 0.13 | -0.085 ± 0.02 | -0.158 ± 0.033 | 0.122 ± 0.083 | -0.631 ± 0.21 | -0.242 ± 0.26 | -0.141 ± 0.05 | -0.409 ± 0.18 | 0.135 ± 0.0092 | -0.0585 ± 0.032 | 0.0095 ± 0.087 | -0.02 ± 0.024 | -0.126 ± 0.0099 | -0.0535 ± 0.049 | 0.154 ± 0.19 | 0.0055 ± 0.047 | -0.19 ± 0.31 | -0.015 ± 0.15
BT:sIL-17F | -0.068 ± 0.055 | 0.092 ± 0.062 | -0.0445 ± 0.005 | -0.067 ± 0.17 | -0.0165 ± 0.036 | -0.0225 ± 0.029 | -0.299 ± 0.037 | -0.0975 ± 0.16 | -0.324 ± 0.11 | -0.372 ± 0.063 | 0.0485 ± 0.028 | -0.0345 ± 0.093 | 0.0055 ± 0.0064 | 0.0945 ± 0.035 | 0.031 ± 0.0085 | -0.146 ± 0.0057 | -0.102 ± 0.057 | -0.0675 ± 0.022 | 0.004 ± 0.15 | -0.0015 ± 0.0092
BT:sTNF-alpha | 0.16 ± 0.015 | 0.065 ± 0.035 | -0.0585 ± 0.022 | -0.055 ± 0.0071 | -0.048 ± 0.13 | -0.031 ± 0.082 | -0.312 ± 0.1 | -0.029 ± 0.027 | -0.0585 ± 0.044 | -0.19 ± 0.043 | 0.0545 ± 0.076 | 0.0925 ± 0.093 | 0.032 ± 0.069 | 0.076 ± 0.014 | 0.032 ± 0.04 | -0.0245 ± 0.043 | -0.139 ± 0.035 | -0.019 ± 0.2 | 0.0485 ± 0.1 | 0.0945 ± 0.03
LPS:CCL2/MCP-1 | 0.018 | 0.026 ± 0.013 | -0.0195 ± 0.0021 | -0.007 ± 0.0042 | 0.017 ± 0.054 | -0.017 ± 0.025 | -0.0535 ± 0.012 | -0.003 ± 0.017 | -0.0045 ± 0.005 | 0.005 ± 0.0099 | -0.01 ± 0.0057 | 0.005 ± 0.024 | -0.0165 ± 0.005 | -0.0055 ± 0.0021 | 0.0405 ± 0.025 | -0.02 ± 0.023 | -0.011 ± 0.021 | 0.0075 ± 0.036 | 0.009 ± 0.021 | 0.0115 ± 0.028
LPS:CD40 | -0.034 ± 0.055 | -0.0305 ± 0.11 | -0.0365 ± 0.022 | -0.0355 ± 0.021 | 0.015 ± 0.031 | 0.0735 ± 0.022 | 0.122 ± 0.0042 | 0.0745 ± 0.063 | 0.039 ± 0.071 | -0.0125 ± 0.097 | -0.0195 ± 0.015 | -0.007 ± 0.034 | -0.027 ± 0.023 | -0.033 ± 0.016 | -0.0655 ± 0.021 | 0.025 ± 0.0099 | 0.0195 ± 0.005 | -0.0175 ± 0.053 | 0.07 ± 0.038 | -0.0015 ± 0.016
LPS:CD62E/E-Selectin | 0.0275 ± 0.025 | 0.013 ± 0.011 | -0.006 ± 0.013 | 0.002 ± 0.0028 | 0.0075 ± 0.011 | 0.071 ± 0.02 | 0.073 ± 0.0042 | 0.0005 ± 0.0021 | 0.0095 ± 0.0092 | 0.0115 ± 0.011 | 0.0165 ± 0.0035 | 0.0245 ± 0.025 | 0.0005 ± 0.042 | 0.003 ± 0.0071 | 0.0525 ± 0.0035 | 0.019 ± 0.013 | -0.0035 ± 0.0092 | -0.003 ± 0.0028 | 0.006 ± 0.0099 | 0.0095 ± 0.012
LPS:CD69 | 0.019 ± 0.024 | 0.0125 ± 0.043 | 0.024 ± 0.035 | 0.02 ± 0.034 | 0.028 ± 0.028 | -0.134 ± 0.0028 | -0.226 ± 0.0042 | 0.0025 ± 0.0021 | -0.0095 ± 0.0064 | -0.0305 ± 0.005 | -0.023 ± 0.027 | -0.004 ± 0.0057 | -0.018 ± 0.0028 | -0.0275 ± 0.039 | -0.0575 ± 0.0035 | -0.004 ± 0.0071 | 0.003 ± 0.017 | 0.0165 ± 0.022 | -0.019 ± 0.069 | -0.0145 ± 0.08
LPS:CD106/VCAM-1 | -0.007 ± 0.04 | -0.0225 ± 0.005 | -0.018 ± 0.0071 | -0.0245 ± 0.011 | -0.002 ± 0.025 | -0.0195 ± 0.023 | -0.0395 ± 0.012 | -0.0045 ± 0.011 | -0.0165 ± 0.0021 | -0.0145 ± 0.0078 | -0.0085 ± 0.019 | 0.015 ± 0.013 | -0.0165 ± 0.013 | -0.006 ± 0.0028 | 0.0075 ± 0.033 | 0.011 ± 0.013 | -0.007 ± 0.0028 | -0.009 ± 0.021 | 0.0045 ± 0.016 | -0.003 ± 0.035
LPS:CD141/Thrombomodulin | 0.0055 ± 0.0064 | -0.0385 ± 0.028 | -0.009 | -0.012 ± 0.016 | -0.008 ± 0.013 | 0.117 ± 0.0042 | 0.201 | -0.0365 ± 0.0021 | -0.052 ± 0.013 | -0.052 ± 0.011 | 0.0355 ± 0.0035 | 0.019 ± 0.034 | 0.015 ± 0.017 | 0.018 ± 0.0057 | 0.027 ± 0.03 | 0.0085 ± 0.019 | 0.0165 ± 0.0092 | 0.003 ± 0.027 | 0.0055 ± 0.0092 | -0.0345 ± 0.021
LPS:CD142/Tissue Factor | 0.0455 ± 0.081 | 0.097 ± 0.065 | -0.0205 ± 0.032 | 0.015 ± 0.033 | 0.0185 ± 0.0092 | 0.139 ± 0.038 | 0.312 ± 0.037 | 0.0425 ± 0.018 | 0.051 ± 0.014 | 0.0525 ± 0.016 | -0.017 ± 0.088 | 0.031 ± 0.096 | -0.03 ± 0.021 | -0.024 ± 0.011 | 0.0785 ± 0.039 | 0.034 ± 0.038 | 0.0025 ± 0.016 | 0.015 ± 0.061 | 0.032 ± 0.014 | 0.006 ± 0.014
LPS:CXCL8/IL-8 | -0.0195 ± 0.035 | 0.0235 ± 0.053 | -0.0155 ± 0.019 | -0.008 ± 0.02 | 0.018 ± 0.024 | 0.039 ± 0.0042 | -0.003 ± 0.0028 | 0.004 ± 0.0042 | 0.0185 ± 0.0064 | 0.013 ± 0.016 | 0.0325 ± 0.043 | 0.045 ± 0.072 | 0.046 ± 0.047 | 0.102 ± 0.021 | 0.17 ± 0.033 | 0.015 | 0.0085 ± 0.021 | 0.0385 ± 0.021 | 0.006 ± 0.045 | 0.016 ± 0.047
LPS:IL-1alpha | -0.045 ± 0.0042 | -0.012 ± 0.055 | -0.038 ± 0.0071 | -0.02 ± 0.0085 | -0.0065 ± 0.023 | -0.098 ± 0.013 | -0.141 ± 0.026 | 0.0165 ± 0.018 | 0.033 ± 0.023 | 0.042 ± 0.025 | -0.0205 ± 0.011 | 0.0155 ± 0.0092 | 0.0095 ± 0.042 | -0.0105 ± 0.00071 | -0.014 ± 0.0099 | -0.032 ± 0.013 | -0.0125 ± 0.013 | 0.0195 ± 0.049 | -0.0515 ± 0.096 | -0.0355 ± 0.023
LPS:M-CSF | 0.0095 ± 0.0035 | -0.0035 ± 0.0092 | -0.001 ± 0.042 | -0.007 ± 0.014 | -0.003 ± 0.035 | 0.0495 ± 0.033 | 0.104 ± 0.041 | -0.001 ± 0.017 | 0.0045 ± 0.023 | 0.009 ± 0.0085 | -0.0005 ± 0.019 | 0.021 ± 0.038 | -0.025 ± 0.04 | -0.0085 ± 0.016 | 0.0525 ± 0.044 | 0.0035 ± 0.005 | -0.002 ± 0.0028 | 0.021 | 0.022 ± 0.02 | 0.006 ± 0.0042
LPS:SRB | 0.0025 ± 0.0078 | -0.003 ± 0.014 | -0.0045 ± 0.0035 | -0.0105 ± 0.0092 | 0.003 | -0.0345 ± 0.0035 | -0.084 ± 0.02 | -0.006 ± 0.0028 | -0.0095 ± 0.0078 | -0.012 ± 0.016 | 0 ± 0.0042 | -0.0035 ± 0.005 | -0.005 ± 0.016 | -0.01 ± 0.014 | -0.022 ± 0.0099 | 0.007 ± 0.011 | 0.005 ± 0.021 | 0.0115 ± 0.025 | -0.001 ± 0.0028 | -0.0085 ± 0.0021
